Experimental data: patent publication US9399626B2, “2-thiopyrimidinones” (Pfizer Inc., priority 2011, dated 2016)

Biological target: T1, MPO (purified from human polynuclear leukocytes) (Homo sapiens, UniProt P05164)
T1 construct: purified from human polynuclear leukocytes; purchased Calbiochem/EMD Biosciences; host or cells: human polynuclear leukocytes (natural source)
Test: MPO Amplex Red Activity Assay
Type: biochemical
Conditions: Table 1A, 2 μM H2O2, pH 7.4
Method in brief: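 Potency is given as kinact/KI: kobs values from 600 s progress curves, minus the uninhibited rate, are fit against inhibitor concentration. Reactions use 2 μM H2O2, 30 μM Amplex Red, pH 7.4 phosphate buffer with NaCl, DTPA and 2% DMSO, started with […] human MPO. Readout is resorufin fluorescence, catalase background subtracted.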

T1 sequence (P05164 279-745 limits assumed): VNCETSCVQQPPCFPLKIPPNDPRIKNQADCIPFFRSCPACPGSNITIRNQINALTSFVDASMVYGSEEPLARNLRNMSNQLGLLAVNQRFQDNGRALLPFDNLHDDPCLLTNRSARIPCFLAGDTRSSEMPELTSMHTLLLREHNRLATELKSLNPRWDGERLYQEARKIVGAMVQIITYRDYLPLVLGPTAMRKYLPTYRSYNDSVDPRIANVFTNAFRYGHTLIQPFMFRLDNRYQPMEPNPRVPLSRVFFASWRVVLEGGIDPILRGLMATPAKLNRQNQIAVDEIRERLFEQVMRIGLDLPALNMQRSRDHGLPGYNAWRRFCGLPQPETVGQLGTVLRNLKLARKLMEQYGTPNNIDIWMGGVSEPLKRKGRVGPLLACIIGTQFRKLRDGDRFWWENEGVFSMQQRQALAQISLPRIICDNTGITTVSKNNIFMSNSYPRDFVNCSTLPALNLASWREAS
T1 sequence (P05164 165-273 limits assumed): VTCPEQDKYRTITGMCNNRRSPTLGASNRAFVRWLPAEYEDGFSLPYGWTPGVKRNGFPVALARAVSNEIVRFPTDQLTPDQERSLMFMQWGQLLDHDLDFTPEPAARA

MPO kinact/Ki	Compound
4810 1/s per M	COc1ccc(-c2cc(=O)[nH]c(=S)n2CCCN)c(OCCO)c1 [Example 402, 1-(3-aminopropyl)-6-[2-(2-hydroxyethoxy)-4-methoxyphenyl]-2-thioxo-2,3-dihydropyrimidin-4(1H)-one]
13300 1/s per M	COc1ccc(-c2cc(=O)[nH]c(=S)n2CCCNC(=N)N)c(OCCO)c1 [Example 403, 1-(3-{6-[2-(2-hydroxyethoxy)-4-methoxyphenyl]-4-oxo-2-thioxo-3,4-dihydropyrimidin-1(2H)-yl}propyl)guanidine]
5970 1/s per M	NCCNC(=O)Cn1c(-c2cc(F)ccc2OCCO)cc(=O)[nH]c1=S [Example 405, N-(2-aminoethyl)-2-{6-[5-fluoro-2-(2-hydroxyethoxy)phenyl]-4-oxo-2-thioxo-3,4-dihydropyrimidin-1(2H)-yl}acetamide]
4480 1/s per M	NCCCn1c(-c2cc(F)ccc2OCCO)cc(=O)[nH]c1=S [Example 406, 1-(3-aminopropyl)-6-[5-fluoro-2-(2-hydroxyethoxy)phenyl]-2-thioxo-2,3-dihydropyrimidin-4(1H)-one]
18700 1/s per M	N=C(N)NCCCn1c(-c2cc(F)ccc2OCCO)cc(=O)[nH]c1=S [Example 407, 1-(3-{6-[5-fluoro-2-(2-hydroxyethoxy)phenyl]-4-oxo-2-thioxo-3,4-dihydropyrimidin-1(2H)-yl}propyl)guanidine]
15000 1/s per M	O=c1cc(-c2cc(F)ccc2OCCO)n(CCO)c(=S)[nH]1 [Example 411, 6-[5-fluoro-2-(2-hydroxyethoxy)phenyl]-1-(2-hydroxyethyl)-2-thioxo-2,3-dihydropyrimidin-4(1H)-one]

Continued, compound first:

Compound	MPO kinact/Ki
COc1ccc(-c2cc(=O)[nH]c(=S)n2CC(=O)N2CC[C@H](N)C2)c(OC)c1 [Example 398, 1-{2-[(3S)-3-aminopyrrolidin-1-yl]-2-oxoethyl}-6-(2,4-dimethoxyphenyl)-2-thioxo-2,3-dihydropyrimidin-4(1H)-one]	4780 1/s per M
COc1ccc(-c2cc(=O)[nH]c(=S)n2CC(=O)NCCNC(=O)[C@H](C)N)c(OC)c1 [Example 399, N-[2-({[6-(2,4-dimethoxyphenyl)-4-oxo-2-thioxo-3,4-dihydropyrimidin-1(2H)-yl]acetyl}amino)ethyl]-L-alaninamide]	4860 1/s per M
CNCCN(C)C(=O)Cn1c(-c2ccc(OC)cc2OC)cc(=O)[nH]c1=S [Example 400, 2-[6-(2,4-dimethoxyphenyl)-4-oxo-2-thioxo-3,4-dihydropyrimidin-1(2H)-yl]-N-methyl-N-[2-(methylamino)ethyl]acetamide]	2650 1/s per M
COc1ccc(-c2cc(=O)[nH]c(=S)n2CC(=O)N[C@H](C)CN)c(OC)c1 [Example 401, N-[(2R)-1-aminopropan-2-yl]-2-[6-(2,4-dimethoxyphenyl)-4-oxo-2-thioxo-3,4-dihydropyrimidin-1(2H)-yl]acetamide]	4060 1/s per M
COc1ccc(-c2cc(=O)[nH]c(=S)n2CC(=O)NCCN)c(OCCO)c1 [Example 404, N-(2-aminoethyl)-2-{6-[2-(2-hydroxyethoxy)-4-methoxyphenyl]-4-oxo-2-thioxo-3,4-dihydropyrimidin-1(2H)-yl}acetamide]	6200 1/s per M
COc1ccc(-c2cc(=O)[nH]c(=S)n2CCC#N)c(OC)c1 [Example 408, 3-[6-(2,4-dimethoxyphenyl)-4-oxo-2-thioxo-3,4-dihydropyrimidin-1(2H)-yl]propanenitrile]	9890 1/s per M
COc1ccc(-c2cc(=O)[nH]c(=S)n2CCO)c(OCCO)c1 [Example 409, 6-[2-(2-hydroxyethoxy)-4-methoxyphenyl]-1-(2-hydroxyethyl)-2-thioxo-2,3-dihydropyrimidin-4(1H)-one]	18000 1/s per M
COc1ccc(-c2cc(=O)[nH]c(=S)n2CC(N)=O)cc1 [Example 410, 2-[6-(4-methoxyphenyl)-4-oxo-2-thioxo-3,4-dihydropyrimidin-1(2H)-yl]acetamide]	3150 1/s per M
